Assay [1] has as its target T1, AII receptors (cell surface membrane fraction, guinea pig adrenal gland) (Cavia porcellus, UniProt Q9WV26).
T1 construct: from tissue; host or cells: guinea pig adrenal gland, cell surface membrane fraction
T1 sequence (Q9WV26 1-359): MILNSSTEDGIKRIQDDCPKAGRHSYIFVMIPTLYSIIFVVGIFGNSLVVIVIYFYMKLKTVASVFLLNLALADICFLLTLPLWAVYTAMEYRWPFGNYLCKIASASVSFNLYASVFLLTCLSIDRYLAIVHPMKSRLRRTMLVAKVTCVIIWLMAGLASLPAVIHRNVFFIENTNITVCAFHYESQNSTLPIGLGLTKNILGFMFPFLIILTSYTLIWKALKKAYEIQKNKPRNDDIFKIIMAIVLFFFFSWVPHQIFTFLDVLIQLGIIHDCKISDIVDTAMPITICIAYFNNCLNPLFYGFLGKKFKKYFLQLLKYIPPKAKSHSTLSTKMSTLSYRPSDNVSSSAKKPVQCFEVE
Briefly: Test A: displacement of radiolabelled AII binding to guinea pig adrenal membrane fraction. The note with it: read-out: IC50 (concentration for 50% displacement of radiolabelled AII binding). On the procedure: Test A: This in vitro procedure involves the incubation of the test compound initially at a concentration of 100 micromolar (or less) in a buffered mixture containing fixed concentrations of radiolabelled AII and a cell surface membrane fraction prepared from a suitable angiotensin target tissue. In this test, the source of cell surface membranes is the guinea pig adrenal gland which is well known to respond to AII. Interaction of the radiolabelled AII with its receptors (assessed as radiolabel bound to the particulate membrane fraction following removal of unbound radiolabel by a rapid filtration procedure such as is standard in such studies) is antagonized by compounds which also bind to the membrane receptor sites and the degree of antagonism (observed in the test as displacement of membrane-bound radioactivity) is determined readily by comparing the receptor-bound radioactivity in the presence of the test compound at the specified test concentration with a control value determined in the absence of the test compound. Using this procedure compounds showing at least 50% displacement of radiolabelled AII binding at a concentration of 10^-4 M are retested at lower concentrations to determine their potency. […]

Assay [2] has as its target T2, AII-induced contractions of isolated rabbit aorta (Oryctolagus cuniculus, UniProt P34976).
T2 construct: isolated rabbit aorta, maintained in a physiological salt solution; from tissue; host or cells: isolated rabbit aorta
T2 sequence (P34976 1-359): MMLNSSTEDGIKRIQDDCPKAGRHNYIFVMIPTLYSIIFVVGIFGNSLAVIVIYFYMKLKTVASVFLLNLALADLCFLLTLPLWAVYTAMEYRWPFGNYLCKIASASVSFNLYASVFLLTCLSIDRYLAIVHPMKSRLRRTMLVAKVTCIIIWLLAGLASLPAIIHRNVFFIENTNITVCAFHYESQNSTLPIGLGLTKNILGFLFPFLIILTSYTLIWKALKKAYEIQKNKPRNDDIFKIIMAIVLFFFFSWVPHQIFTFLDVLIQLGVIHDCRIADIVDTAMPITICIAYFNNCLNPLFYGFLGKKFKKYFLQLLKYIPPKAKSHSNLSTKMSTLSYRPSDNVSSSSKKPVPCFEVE
Kind of assay: Test B: antagonism of AII-induced contractions of isolated rabbit aorta. Type of assay: cell-based. The note with it: 37° C., read-out: pA2 (converted). On the procedure:
Test B: This in vitro test involves the measurement of the antagonistic effects of the test compound against AII-induced contractions of isolated rabbit aorta, maintained in a physiological salt solution at 37° C. In order to ensure that the effect of the compound is specific to antagonism of AII, the effect of the test compound on noradrenaline-induced contractions may also be determined in the same preparation.

Assay [3] concerns angiotensin II-induced pressor responses. Kind of assay: Test C: antagonism of angiotensin II-induced pressor responses in terminally-anaesthetised or conscious rats. Type of assay: in vivo. Particulars: Rattus norvegicus, parenteral administration. As to the method: Test C: This in vivo test involves using terminally-anaesthetised or conscious rats in which an arterial catheter has been implanted under anaesthesia for the measurement of changes in blood pressure. The AII antagonistic effects of the test compound following oral or parenteral administration, are assessed against angiotensin II-induced pressor responses. To ensure that the effect is specific the effect of the test compound on vasopressin-induced pressor responses may also be determined in the same preparation.

Consider 1 compound from US5171748A, “Benz[4,5]imidazole-containing angiotensin antagonists” (Imperial Chemical Industries plc, priority 1989, dated 1992).

One may read the ED50 as the dose at which the effect has come halfway, by size or by number of responders. `CCCCc1nc2ccccc2n1Cc1ccc(C(=O)NS(=O)(=O)c2ccccc2)cc1` [Example 3, 4-[(2-butyl-1H-benzimidazol-1-yl)methyl]-N-phenylsulphonylbenzamide]: in assay [1], the IC50 turned out to be 100 nM. In assay [2], the Kb was 25.1 nM. In addition, the ED50 in assay [3] was 3 mg/kg.
